Laboratory results published in PMC7031696 (Cell chemical biology, 2019).
Like-named read-outs stand apart in the source and are kept apart here.

What was measured:
[1] = test system: Plasmodium falciparum 3D7-A10 parasites; test: Stage specificity assay (8-h exposure of synchronized stages, IC50^8h); format: cell-based; settings: for IC50: Plasmodium falciparum
[2] = test system: 3D7-MR4 trophozoite parasite-infected RBCs; test: Metabolomic profiling (hydrophilic metabolite changes, UHPLC-MS); format: cell-based, Plasmodium falciparum
[3] = test system: asynchronous 3D7-A10 parasite cultures; test: Standard 72-h exposure asexual blood stage susceptibility assay (IC50^72h); format: cell-based, Plasmodium falciparum; settings: Plasmodium falciparum, 3D7, 72 h, read-out: Overall (72hr assay) Mean IC50 (IC50^72h)

Question: How did the “Ratio lowest IC50 8hr/IC50 72hr” value ([1]; 3D7-A10) turn out when FC(F)(F)c1cccc(Nc2nc3ccccc3nc2Nc2cccc(C(F)(F)F)c2)c1 [MMV665794] was run?
Answer: 1.8

Question: What about the IC50 ([1]; 3D7, read-out: Early rings Mean IC50 (IC50^8h), 8-h exposure 0–8 hr, 3D7-A10, survival at 60 h) of the same compound?
Answer: 369 nM

Question: What about the IC50 ([1]; 3D7, read-out: Early trophozoites Mean IC50 (IC50^8h), 8-h exposure 16–24 hr, 3D7-A10, survival at 60 h) of the same compound?
Answer: 210 nM

Question: What about the IC50 ([1]; 3D7, read-out: Late rings Mean IC50 (IC50^8h), 8-h exposure 8–16 hr, 3D7-A10, survival at 60 h) of the same compound?
Answer: 590 nM

Question: What about the IC50 ([1]; 3D7, read-out: Late trophozoites Mean IC50 (IC50^8h), 8-h exposure 24–32 hr, 3D7-A10, survival at 60 h) of the same compound?
Answer: 165 nM

Question: What about the IC50 ([1]; 3D7, read-out: Schizonts Mean IC50 (IC50^8h), 8-h exposure 32–40 hr, 3D7-A10, survival at 60 h) of the same compound?
Answer: 203 nM

Question: What about the “Log2(fold changes) 3-phosphoglycerate” value ([2]; metabolite 3-phosphoglycerate, log2 fold change) of the same compound?
Answer: 0.1475

Question: What about the “Log2(fold changes) 4-Pyridoxic acid” value ([2]; metabolite 4-Pyridoxic acid, log2 fold change) of the same compound?
Answer: 0.1397

Question: And the “Log2(fold changes) 4-aminobutyrate” value ([2]; metabolite 4-aminobutyrate, log2 fold change)?
Answer: -0.1443

Question: What about the “Log2(fold changes) 4-phosphopantetheine” value ([2]; metabolite 4-phosphopantetheine, log2 fold change) of the same compound?
Answer: 0.0000

Question: And the “Log2(fold changes) 4-phosphopantothenate” value ([2]; metabolite 4-phosphopantothenate, log2 fold change)?
Answer: 0.0000

Question: What about the “Log2(fold changes) 5-aminopentanoic acid” value ([2]; metabolite 5-aminopentanoic acid, log2 fold change) of the same compound?
Answer: 0.0000

Question: And the “Log2(fold changes) 5-methyl-THF” value ([2]; metabolite 5-methyl-THF, log2 fold change)?
Answer: 0.0000

Question: What about the “Log2(fold changes) 5-phosphoribosyl-1-pyrophosphate” value ([2]; metabolite 5-phosphoribosyl-1-pyrophosphate, log2 fold change) of the same compound?
Answer: 0.0000

Question: What about the “Log2(fold changes) 6-phospho-D-gluconate” value ([2]; metabolite 6-phospho-D-gluconate, log2 fold change) of the same compound?
Answer: 0.0648

Question: What about the “Log2(fold change) HVDD” value ([2]; metabolite HVDD) of the same compound?
Answer: 0.0000

Question: And the “Log2(fold change) Hydroxyisocaproic acid” value ([2]; metabolite Hydroxyisocaproic acid)?
Answer: 0.0000

Question: What about the “Log2(fold change) IDP” value ([2]; metabolite IDP) of the same compound?
Answer: 0.0000

Question: And the “Log2(fold change) IMP” value ([2]; metabolite IMP)?
Answer: -0.1724

Question: And the “Log2(fold change) Inositol” value ([2]; metabolite Inositol)?
Answer: 0.4519

Question: And the “Log2(fold change) Isopentyl-PP” value ([2]; metabolite Isopentyl-PP)?
Answer: 0.0000

Question: What about the “Log2(fold change) L-arginino-succinate” value ([2]; metabolite L-arginino-succinate) of the same compound?
Answer: 0.0000

Question: What about the “Log2(fold change) LD” value ([2]; metabolite LD) of the same compound?
Answer: 0.2876

Question: And the “Log2(fold change) Myristoyl/tetradecanoyl-CoA” value ([2]; metabolite Myristoyl/tetradecanoyl-CoA)?
Answer: 0.0000

Question: And the “Log2(fold change) N-Acetyl-L-alanine” value ([2]; metabolite N-Acetyl-L-alanine)?
Answer: -0.5892

Question: And the “Log2(fold change) N-acetyl-L-ornithine” value ([2]; metabolite N-acetyl-L-ornithine)?
Answer: -0.6613

Question: What about the “Log2(fold change) N-acetyl-glucosamine-1/6-phosphate” value ([2]; metabolite N-acetyl-glucosamine-1/6-phosphate) of the same compound?
Answer: 0.0457

Question: What about the “Log2(fold change) N-acetyl-glutamate” value ([2]; metabolite N-acetyl-glutamate) of the same compound?
Answer: 0.0432

Question: And the “Log2(fold change) N-acetyl-glutamine” value ([2]; metabolite N-acetyl-glutamine)?
Answer: -0.6444

Question: What about the “Log2(fold change) N-carbamoyl-L-aspartate” value ([2]; metabolite N-carbamoyl-L-aspartate) of the same compound?
Answer: 0.7842

Question: And the “Log2(fold change) NAD+” value ([2]; metabolite NAD+)?
Answer: -0.0023

Question: And the “Log2(fold change) NADH” value ([2]; metabolite NADH)?
Answer: 0.0000

Question: What about the “Log2(fold change) NADP+” value ([2]; metabolite NADP+) of the same compound?
Answer: 0.2420

Question: What about the “Log2(fold change) NADPH” value ([2]; metabolite NADPH) of the same compound?
Answer: 0.2872

Question: What about the “Log2(fold change) O-acetyl-L-serine” value ([2]; metabolite O-acetyl-L-serine) of the same compound?
Answer: 0.0000

Question: And the “Log2(fold change) Octoluse 8/1P” value ([2]; metabolite Octoluse 8/1P)?
Answer: -0.0525

Question: What about the “Log2(fold change) Octoluse Bisphosphate” value ([2]; metabolite Octoluse Bisphosphate) of the same compound?
Answer: -0.0227

Question: What about the “Log2(fold change) PD” value ([2]; metabolite PD) of the same compound?
Answer: -1.6060

Question: And the “Log2(fold change) PE” value ([2]; metabolite PE)?
Answer: -1.2530

Question: What about the “Log2(fold change) PEE” value ([2]; metabolite PEE) of the same compound?
Answer: -0.7348

Question: And the “Log2(fold change) PEEK” value ([2]; metabolite PEEK)?
Answer: -2.1636

Question: And the “Log2(fold change) PVNF” value ([2]; metabolite PVNF)?
Answer: -0.9738

Question: And the “Log2(fold change) Pyroglutamic acid” value ([2]; metabolite Pyroglutamic acid)?
Answer: -0.1549

Question: And the “Log2(fold change) Pyrophosphate” value ([2]; metabolite Pyrophosphate)?
Answer: 0.0000

Question: What about the “Log2(fold change) Ribose-5-phosphate” value ([2]; metabolite Ribose-5-phosphate) of the same compound?
Answer: 0.0000

Question: And the “Log2(fold change) S-adenosyl-L-homocysteine” value ([2]; metabolite S-adenosyl-L-homocysteine)?
Answer: -0.1116

Question: And the “Log2(fold change) S-adenosyl-L-methioninamine” value ([2]; metabolite S-adenosyl-L-methioninamine)?
Answer: 0.0000

Question: And the “Log2(fold change) S-adenosyl-L-methionine” value ([2]; metabolite S-adenosyl-L-methionine)?
Answer: 0.0000

Question: What about the “Log2(fold change) S-methyl-5'-thioadenosine” value ([2]; metabolite S-methyl-5'-thioadenosine) of the same compound?
Answer: -0.0770

Question: And the “Log2(fold change) SD” value ([2]; metabolite SD)?
Answer: -0.6103

Question: What about the “Log2(fold change) SDL” value ([2]; metabolite SDL) of the same compound?
Answer: 0.0000

Question: What about the “Log2(fold change) SID” value ([2]; metabolite SID) of the same compound?
Answer: 0.0000

Question: What about the “Log2(fold change) Sedoheptulose bisphosphate” value ([2]; metabolite Sedoheptulose bisphosphate) of the same compound?
Answer: 0.0000

Question: And the “Log2(fold change) Thiamine pyrophosphate” value ([2]; metabolite Thiamine pyrophosphate)?
Answer: 0.0000

Question: And the “Log2(fold changes) UDP-D-glucose” value ([2]; metabolite UDP-D-glucose, log2 fold change)?
Answer: 0.0057

Question: And the “Log2(fold changes) UDP-D-glucuronate” value ([2]; metabolite UDP-D-glucuronate, log2 fold change)?
Answer: 0.0333

Question: And the “Log2(fold changes) UDP-N-acetyl-glucosamine” value ([2]; metabolite UDP-N-acetyl-glucosamine, log2 fold change)?
Answer: -0.0841

Question: And the “Log2(fold changes) UDP” value ([2]; metabolite UDP, log2 fold change)?
Answer: -0.2966

Question: What about the “Log2(fold changes) UMP” value ([2]; metabolite UMP, log2 fold change) of the same compound?
Answer: -0.1315

Question: And the “Log2(fold changes) UTP” value ([2]; metabolite UTP, log2 fold change)?
Answer: -0.1979

Question: What about the “Log2(fold change) hydroxyphenylpyruvate” value ([2]; metabolite hydroxyphenylpyruvate) of the same compound?
Answer: 0.0000

Question: What about the “Log2(fold change) hydroxyproline/Aminolevulinate” value ([2]; metabolite hydroxyproline/Aminolevulinate) of the same compound?
Answer: 0.0000

Question: What about the “Log2(fold change) hypoxanthine” value ([2]; metabolite hypoxanthine) of the same compound?
Answer: 0.0564

Question: What about the “Log2(fold change) indole” value ([2]; metabolite indole) of the same compound?
Answer: 0.0000

Question: And the “Log2(fold change) inosine” value ([2]; metabolite inosine)?
Answer: -0.1857

Question: And the “Log2(fold change) isoleucine” value ([2]; metabolite isoleucine)?
Answer: 0.0000

Question: What about the “Log2(fold change) lactate” value ([2]; metabolite lactate) of the same compound?
Answer: -0.1258

Question: What about the “Log2(fold change) leucine” value ([2]; metabolite leucine) of the same compound?
Answer: 0.0000

Question: What about the “Log2(fold change) lysine” value ([2]; metabolite lysine) of the same compound?
Answer: -1.0057

Question: And the “Log2(fold change) malate” value ([2]; metabolite malate)?
Answer: -0.5114

Question: What about the “Log2(fold change) maleic acid” value ([2]; metabolite maleic acid) of the same compound?
Answer: 0.0000

Question: What about the “Log2(fold change) methionine” value ([2]; metabolite methionine) of the same compound?
Answer: 0.1032

Question: What about the “Log2(fold change) myo-inositol” value ([2]; metabolite myo-inositol) of the same compound?
Answer: -0.1088

Question: And the “Log2(fold change) nicotinamide mononucleotide” value ([2]; metabolite nicotinamide mononucleotide)?
Answer: 0.0000

Question: What about the “Log2(fold change) nicotinate” value ([2]; metabolite nicotinate) of the same compound?
Answer: -0.0014

Question: What about the “Log2(fold change) ornithine” value ([2]; metabolite ornithine) of the same compound?
Answer: -0.5221

Question: What about the “Log2(fold change) orotate” value ([2]; metabolite orotate) of the same compound?
Answer: -0.1200

Question: What about the “Log2(fold change) orotidine-5'-phosphate” value ([2]; metabolite orotidine-5'-phosphate) of the same compound?
Answer: -0.1502

Question: What about the “Log2(fold change) oxaloacetate” value ([2]; metabolite oxaloacetate) of the same compound?
Answer: 0.0000

Question: What about the “Log2(fold change) p-aminobenzoate” value ([2]; metabolite p-aminobenzoate) of the same compound?
Answer: 0.0000

Question: What about the “Log2(fold change) p-hydroxybenzoate” value ([2]; metabolite p-hydroxybenzoate) of the same compound?
Answer: 0.0000

Question: What about the “Log2(fold change) pantothenate” value ([2]; metabolite pantothenate) of the same compound?
Answer: -0.3232

Question: What about the “Log2(fold change) phenylalanine” value ([2]; metabolite phenylalanine) of the same compound?
Answer: -0.3048

Question: What about the “Log2(fold change) phenylpyruvate” value ([2]; metabolite phenylpyruvate) of the same compound?
Answer: 0.0000

Question: And the “Log2(fold change) phosphoenolpyruvate” value ([2]; metabolite phosphoenolpyruvate)?
Answer: 0.2889

Question: And the “Log2(fold change) prephenate” value ([2]; metabolite prephenate)?
Answer: 0.0000

Question: And the “Log2(fold change) proline” value ([2]; metabolite proline)?
Answer: -0.1760

Question: And the “Log2(fold change) pyridoxine” value ([2]; metabolite pyridoxine)?
Answer: -0.0343

Question: What about the “Log2(fold change) pyruvate” value ([2]; metabolite pyruvate) of the same compound?
Answer: -0.4249

Question: And the “Log2(fold change) riboflavin” value ([2]; metabolite riboflavin)?
Answer: 0.0000

Question: What about the “Log2(fold change) ribose” value ([2]; metabolite ribose) of the same compound?
Answer: 0.0000

Question: What about the “Log2(fold change) ribose-phosphate” value ([2]; metabolite ribose-phosphate) of the same compound?
Answer: -0.1845

Question: What about the “Log2(fold change) ribulose-5-phosphate” value ([2]; metabolite ribulose-5-phosphate) of the same compound?
Answer: 0.0000

Question: What about the “Log2(fold change) serine” value ([2]; metabolite serine) of the same compound?
Answer: -0.0943

Question: And the “Log2(fold change) sn-glycerol-3-phosphate” value ([2]; metabolite sn-glycerol-3-phosphate)?
Answer: 0.1547

Question: And the “Log2(fold change) succinate/Methylmalonic acid” value ([2]; metabolite succinate/Methylmalonic acid)?
Answer: 0.2773

Question: And the “Log2(fold change) succinyl-CoA/methylmalonyl-CoA” value ([2]; metabolite succinyl-CoA/methylmalonyl-CoA)?
Answer: 0.0000

Question: And the “Log2(fold change) taurine” value ([2]; metabolite taurine)?
Answer: 0.4682

Question: And the “Log2(fold change) thiamine” value ([2]; metabolite thiamine)?
Answer: -0.4163

Question: And the “Log2(fold change) threonine/homoserine” value ([2]; metabolite threonine/homoserine)?
Answer: -0.3057

Question: What about the “Log2(fold change) thymidine” value ([2]; metabolite thymidine) of the same compound?
Answer: 0.0000

Question: What about the “Log2(fold changes) thymine” value ([2]; metabolite thymine, log2 fold change) of the same compound?
Answer: 0.0000

Question: What about the “Log2(fold changes) trehalose-6-Phosphate” value ([2]; metabolite trehalose-6-Phosphate, log2 fold change) of the same compound?
Answer: 0.0000

Question: What about the “Log2(fold changes) tryptophan” value ([2]; metabolite tryptophan, log2 fold change) of the same compound?
Answer: -0.2265

Question: What about the “Log2(fold changes) tyrosine” value ([2]; metabolite tyrosine, log2 fold change) of the same compound?
Answer: -0.1308

Question: And the “Log2(fold changes) uridine” value ([2]; metabolite uridine, log2 fold change)?
Answer: -0.0071

Question: And the IC50 [3]?
Answer: 91.3 nM
